Key:
Assay type in all cases: cell-based
[1] = tested on: Pseudomonas aeruginosa ATCC#33988; experiment: Microbial testing in diesel fuel, plate count
[2] = tested on: Yarrowia tropicalis ATCC#48138; experiment: Microbial testing in diesel fuel, plate count
[3] = tested on: Hormoconis resinae ATCC#20495; experiment: Microbial testing in diesel fuel, plate count
[4] = tested on: Pseudomonas aeruginosa ATCC#33988; experiment: Microbial testing in biodiesel fuel, plate count; conditions: no biocide
[5] = tested on: Hormoconis resinae ATCC#20495; experiment: Microbial testing in biodiesel fuel, plate count; conditions: no biocide
[6] = amino alcohol 1500 ppm + FS 135 ppm, Day 0
[7] = amino alcohol 1500 ppm + FS 135 ppm, Wk 1
[8] = amino alcohol 1500 ppm + FS 135 ppm, Wk 2
[9] = amino alcohol 1500 ppm + FS 135 ppm, Wk 3
[10] = amino alcohol 1500 ppm + FS 135 ppm, Wk 4
[11] = amino alcohol 1500 ppm + FS 1000 ppm, Day 0
[12] = amino alcohol 1500 ppm + FS 1000 ppm, Wk 1
[13] = amino alcohol 1500 ppm + FS 1000 ppm, Wk 2
[14] = amino alcohol 1500 ppm + FS 1000 ppm, Wk 3
[15] = amino alcohol 1500 ppm + FS 1000 ppm, Wk 4
[16] = amino alcohol 1500 ppm, no biocide, Day 0
[17] = amino alcohol 1500 ppm, no biocide, Wk 1
[18] = amino alcohol 1500 ppm, no biocide, Wk 2
[19] = amino alcohol 1500 ppm, no biocide, Wk 3
[20] = amino alcohol 1500 ppm, no biocide, Wk 4
[21] = amino alcohol 3000 ppm + FS 135 ppm, Day 0
[22] = amino alcohol 3000 ppm + FS 135 ppm, Wk 1
[23] = amino alcohol 3000 ppm + FS 135 ppm, Wk 2
[24] = amino alcohol 3000 ppm + FS 135 ppm, Wk 3
[25] = amino alcohol 3000 ppm + FS 135 ppm, Wk 4
[26] = amino alcohol 3000 ppm + FS 1000 ppm, Day 0
[27] = amino alcohol 3000 ppm + FS 1000 ppm, Wk 1
[28] = amino alcohol 3000 ppm + FS 1000 ppm, Wk 2
[29] = amino alcohol 3000 ppm + FS 1000 ppm, Wk 3
[30] = amino alcohol 3000 ppm + FS 1000 ppm, Wk 4
[31] = amino alcohol 3000 ppm, no biocide, Day 0
[32] = amino alcohol 3000 ppm, no biocide, Wk 1
[33] = amino alcohol 3000 ppm, no biocide, Wk 2
[34] = amino alcohol 3000 ppm, no biocide, Wk 3
[35] = amino alcohol 3000 ppm, no biocide, Wk 4

In the case of `CC(C)(N)CO` [AMP, 2-amino-2-methyl-1-propanol], the “Ps. aeruginosa organism count” value [1, 6] is reported as 3.7E6, the “Ps. aeruginosa organism count” value [1, 7] is reported as 4.3E5 and the “Ps. aeruginosa organism count” value [1, 8] is reported as 9.0E4. For the same molecule, the “Ps. aeruginosa organism count” value [1, 9] was 1.4E4, the “Ps. aeruginosa organism count” value [1, 10] was 8.2E3 and the “Ps. aeruginosa organism count” value [1, 11] was 3.7E6. The “Ps. aeruginosa organism count” value [1, 12] was 1.4E2, the “Ps. aeruginosa organism count” value [1, 13] was less than 10 and the “Ps. aeruginosa organism count” value [1, 14] was less than 10. For the same molecule, the “Ps. aeruginosa organism count” value [1, 15] was less than 10, the “Ps. aeruginosa organism count” value [1, 16] was 3.7E6 and the “Ps. aeruginosa organism count” value [1, 17] was 2.1E6. For the same molecule, the “Ps. aeruginosa organism count” value [1, 18] was 5.0E6, the “Ps. aeruginosa organism count” value [1, 19] was 1.0E6 and the “Ps. aeruginosa organism count” value [1, 20] was 6.8E6. The “Ps. aeruginosa organism count” value [1, 21] was 3.7E6, the “Ps. aeruginosa organism count” value [1, 22] was 7.0E5 and the “Ps. aeruginosa organism count” value [1, 23] was 6.8E4. For the same molecule, the “Ps. aeruginosa organism count” value [1, 24] was 1.6E4, the “Ps. aeruginosa organism count” value [1, 25] was 1.1E4 and the “Ps. aeruginosa organism count” value [1, 26] was 3.7E6. For the same molecule, the “Ps. aeruginosa organism count” value [1, 27] was less than 10, the “Ps. aeruginosa organism count” value [1, 28] was less than 10 and the “Ps. aeruginosa organism count” value [1, 29] was less than 10. For the same molecule, the “Ps. aeruginosa organism count” value [1, 30] was less than 10, the “Ps. aeruginosa organism count” value [1, 31] was 3.7E6 and the “Ps. aeruginosa organism count” value [1, 32] was 8.6E5. For the same molecule, the “Ps. aeruginosa organism count” value [1, 33] was 4.0E6, the “Ps. aeruginosa organism count” value [1, 34] was 7.8E6 and the “Ps. aeruginosa organism count” value [1, 35] was 7.2E6. The “Y. tropicalis organism count” value [2, 6] was 2.8E5, the “Y. tropicalis organism count” value [2, 7] was 8.2E4 and the “Y. tropicalis organism count” value [2, 8] was 5.6E4. The “Y. tropicalis organism count” value [2, 9] was 9.0E3, the “Y. tropicalis organism count” value [2, 10] was 5.9E3 and the “Y. tropicalis organism count” value [2, 11] was 2.8E5. For the same molecule, the “Y. tropicalis organism count” value [2, 12] was 5.2E2, the “Y. tropicalis organism count” value [2, 13] was less than 10 and the “Y. tropicalis organism count” value [2, 14] was less than 10. The “Y. tropicalis organism count” value [2, 15] was less than 10, the “Y. tropicalis organism count” value [2, 16] was 2.8E5 and the “Y. tropicalis organism count” value [2, 17] was 3.4E5. The “Y. tropicalis organism count” value [2, 18] was 6.2E5, the “Y. tropicalis organism count” value [2, 19] was 8.0E6 and the “Y. tropicalis organism count” value [2, 20] was 4.3E6. The “Y. tropicalis organism count” value [2, 21] was 2.8E5, the “Y. tropicalis organism count” value [2, 22] was 5.8E4 and the “Y. tropicalis organism count” value [2, 23] was 9.4E3. The “Y. tropicalis organism count” value [2, 24] was 4.8E3, the “Y. tropicalis organism count” value [2, 25] was 5.0E3 and the “Y. tropicalis organism count” value [2, 26] was 2.8E5. For the same molecule, the “Y. tropicalis organism count” value [2, 27] was 9.4E2, the “Y. tropicalis organism count” value [2, 28] was less than 10 and the “Y. tropicalis organism count” value [2, 29] was less than 10. The “Y. tropicalis organism count” value [2, 30] was less than 10, the “Y. tropicalis organism count” value [2, 31] was 2.8E5 and the “Y. tropicalis organism count” value [2, 32] was 1.6E5. The “Y. tropicalis organism count” value [2, 33] was 5.7E5, the “Y. tropicalis organism count” value [2, 34] was 6.8E5 and the “Y. tropicalis organism count” value [2, 35] was 2.0E6. The “H. resinae organism count” value [3, 6] was 5.3E5, the “H. resinae organism count” value [3, 7] was 6.7E4 and the “H. resinae organism count” value [3, 8] was 1.3E4. The “H. resinae organism count” value [3, 9] was 5.8E3, the “H. resinae organism count” value [3, 10] was 4.7E3 and the “H. resinae organism count” value [3, 11] was 5.3E5. For the same molecule, the “H. resinae organism count” value [3, 12] was 9.2E2, the “H. resinae organism count” value [3, 13] was less than 10 and the “H. resinae organism count” value [3, 14] was less than 10. The “H. resinae organism count” value [3, 15] was less than 10, the “H. resinae organism count” value [3, 16] was 5.3E5 and the “H. resinae organism count” value [3, 17] was 2.0E5. For the same molecule, the “H. resinae organism count” value [3, 18] was 5.8E5, the “H. resinae organism count” value [3, 19] was 8.1E5 and the “H. resinae organism count” value [3, 20] was 7.2E5. The “H. resinae organism count” value [3, 21] was 5.3E5, the “H. resinae organism count” value [3, 22] was 5.7E4 and the “H. resinae organism count” value [3, 23] was 8.6E3. For the same molecule, the “H. resinae organism count” value [3, 24] was 7.6E3, the “H. resinae organism count” value [3, 25] was 5.8E3 and the “H. resinae organism count” value [3, 26] was 5.3E5. The “H. resinae organism count” value [3, 27] was 7.0E3, the “H. resinae organism count” value [3, 28] was less than 10 and the “H. resinae organism count” value [3, 29] was less than 10. The “H. resinae organism count” value [3, 30] was less than 10, the “H. resinae organism count” value [3, 31] was 5.3E5 and the “H. resinae organism count” value [3, 32] was 3.6E5. For the same molecule, the “H. resinae organism count” value [3, 33] was 7.3E5, the “H. resinae organism count” value [3, 34] was 1.1E6 and the “H. resinae organism count” value [3, 35] was 2.3E6.

In the case of `CCCCCCCC/C=C\CCCCCCCC(=O)O.OCCN(CCO)CCO` [TEA/Oleic], the “Bacteria (Ps. aeruginosa) count” value ([4]; additive 500 ppm, Week 1) is reported as 7.30E+04 Bact/ml, the “Bacteria (Ps. aeruginosa) count” value ([4]; additive 500 ppm, Week 2) is reported as 5.00E+05 Bact/ml and the “Bacteria (Ps. aeruginosa) count” value ([4]; additive 500 ppm, Week 3) is reported as 1.20E+06 Bact/ml. For the same molecule, the “Bacteria (Ps. aeruginosa) count” value ([4]; additive 500 ppm, Week 4) was 1.10E+06 Bact/ml, the “Bacteria (Ps. aeruginosa) count” value ([4]; additive 1500 ppm, Week 1) was 2.00E+03 Bact/ml and the “Bacteria (Ps. aeruginosa) count” value ([4]; additive 1500 ppm, Week 2) was 9.00E+04 Bact/ml. The “Bacteria (Ps. aeruginosa) count” value ([4]; additive 1500 ppm, Week 3) was 2.20E+05 Bact/ml, the “Bacteria (Ps. aeruginosa) count” value ([4]; additive 1500 ppm, Week 4) was 8.30E+04 Bact/ml and the “Mold (H. resinae) count” value ([5]; additive 500 ppm, Week 1) was 8.20E+04 Mold/ml. For the same molecule, the “Mold (H. resinae) count” value ([5]; additive 500 ppm, Week 2) was 3.70E+05 Mold/ml, the “Mold (H. resinae) count” value ([5]; additive 500 ppm, Week 3) was 4.30E+05 Mold/ml and the “Mold (H. resinae) count” value ([5]; additive 500 ppm, Week 4) was 6.20E+05 Mold/ml. For the same molecule, the “Mold (H. resinae) count” value ([5]; additive 1500 ppm, Week 1) was 3.70E+02 Mold/ml, the “Mold (H. resinae) count” value ([5]; additive 1500 ppm, Week 2) was 1.30E+04 Mold/ml and the “Mold (H. resinae) count” value ([5]; additive 1500 ppm, Week 3) was 2.00E+04 Mold/ml. The “Mold (H. resinae) count” value ([5]; additive 1500 ppm, Week 4) was 4.70E+03 Mold/ml.

— patent publication US8546386B2, “Corrosion and microbial control in hydrocarbonaceous compositions” (Dow Global Technologies LLC, priority 2008, dated 2013)
